# Laboratory results taken from PubChem BioAssay (NCI).
#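 Where inhibition never reached the appropriate level, the endpoint shown equals the highest concentration tested. Otherwise, values were interpolated linearly from a five-concentration, 48-hour dose response in 96-well plates. GI50 = concentration required for 50% inhibition of growth. The concentration for full growth arrest is given as TGI.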
# Key:
# Assay in all cases: inhibition of tumour cell growth, NCI panel, 48 h
# MDA-MB-435 = test system: MDA-MB-435
# SK-MEL-28 melanoma = test system: SK-MEL-28 melanoma
# HT29 colon = test system: HT29 colon
# CCRF-CEM leukemia = test system: CCRF-CEM leukemia
# HS 578T breast = test system: HS 578T breast
# A498 renal = test system: A498 renal
# CAKI-1 renal = test system: CAKI-1 renal
# EKVX NSCLC = test system: EKVX NSCLC
# OVCAR-4 ovarian = test system: OVCAR-4 ovarian
# MALME-3M melanoma = test system: MALME-3M melanoma
Structure (SMILES),TGI (MDA-MB-435),TGI (SK-MEL-28 melanoma),TGI (HT29 colon),TGI (CCRF-CEM leukemia),TGI (HS 578T breast),TGI (A498 renal),TGI (CAKI-1 renal),TGI (EKVX NSCLC),TGI (OVCAR-4 ovarian),TGI (MALME-3M melanoma),GI50 (MDA-MB-435),GI50 (SK-MEL-28 melanoma),GI50 (HT29 colon),GI50 (CCRF-CEM leukemia),GI50 (HS 578T breast),GI50 (A498 renal),GI50 (CAKI-1 renal),GI50 (EKVX NSCLC),GI50 (OVCAR-4 ovarian),GI50 (MALME-3M melanoma)
COc1ccc(/C=c2\s/c(=C3/SC(=S)N(c4ccccc4)C3=O)n(-c3ccccc3)c2=O)cc1,> 100 µM,> 100 µM,> 100 µM,77.4 µM,74 µM,> 100 µM,> 100 µM,> 100 µM,> 100 µM,> 100 µM,–,–,–,–,–,–,–,–,–,–
CN(C)c1ccc(/C=C(\NC(=O)c2ccccc2)c2nn(C)c(=O)o2)cc1,> 100 µM,> 100 µM,> 100 µM,> 100 µM,> 100 µM,> 100 µM,> 100 µM,> 100 µM,97.7 µM,> 100 µM,–,–,–,–,–,–,–,–,–,–
Cc1ccc2c(c1)-c1c(C#N)c(N)nc(-c3ccc(Cl)cc3)c1CCS2(=O)=O,> 79.2 µM,> 100 µM,> 100 µM,> 23.7 µM,64.6 µM,> 60.5 µM,> 100 µM,> 100 µM,> 100 µM,> 100 µM,–,–,–,–,–,–,–,–,–,–
C/C=C(/C)C(=O)OC1CC(C)[C@H]2CC(=O)C(C)=C2CC1C(C)(C)OC(C)=O (stereo not given in full),68.6 µM,> 100 µM,> 100 µM,65.8 µM,> 100 µM,41.1 µM,> 100 µM,> 100 µM,68 µM,54 µM,–,–,–,–,–,–,–,–,–,–
CN(C)CCCNC(=O)c1cc(NC(=O)c2cc(NC(=O)CCCn3c4ccccc4c4ccccc43)cn2C)cn1C,> 61.7 µM,92 µM,> 100 µM,> 100 µM,49.7 µM,44.3 µM,43.5 µM,46.2 µM,35.5 µM,> 49 µM,–,–,–,–,–,–,–,–,–,–
CC[C@H](Nc1nc(C)nc(N)c1C#N)c1nc2cccc(NCc3ccc(C(=O)NO)cc3)c2c(=O)n1-c1ccccc1,3.74 µM,3.28 µM,4.45 µM,9.21 µM,8.36 µM,2.93 µM,3.68 µM,3.21 µM,14.6 µM,4.05 µM,1.93 µM,1.6 µM,1.76 µM,0.551 µM,2.45 µM,1.44 µM,1.76 µM,1.56 µM,2.74 µM,1.48 µM
C1=C2C3=[N+](CCCCC3)CC2Cc2ccsc21 (stereo not given),> 100 µM,> 100 µM,> 100 µM,> 100 µM,> 100 µM,> 100 µM,> 100 µM,> 100 µM,> 100 µM,> 100 µM,–,–,–,–,–,–,–,–,–,–
COc1ccc(C2C3=C(COC3=O)Oc3cc4c(cc32)OCO4)c(OC)c1 (stereo not given),5.49 µM,> 100 µM,> 100 µM,> 100 µM,98.3 µM,> 100 µM,> 100 µM,> 100 µM,> 100 µM,> 100 µM,–,–,–,–,–,–,–,–,–,–
CCOc1ccc(Nc2nc(N)nc(N)c2N)cc1,65 µM,> 100 µM,33.3 µM,> 100 µM,45.7 µM,> 100 µM,70.3 µM,> 100 µM,> 100 µM,66.2 µM,–,–,–,–,–,–,–,–,–,–
CS(=O)(=O)Nc1ccc2c(c1)N(S(C)(=O)=O)CC2CCl (stereo not given),> 100 µM,> 100 µM,> 100 µM,> 100 µM,> 100 µM,> 100 µM,> 100 µM,> 100 µM,> 100 µM,> 100 µM,–,–,–,–,–,–,–,–,–,–
CC1CCC2(NC1)OC1CC3C4CC=C5CC(OC6OC(CO)C(OC7OC(C)C(O)C(O)C7O)C(O)C6OC6OC(C)C(O)C(O)C6O)CCC5(C)C4CCC3(C)C1C2C (stereo not given),5 µM,4.41 µM,15.6 µM,> 55.7 µM,15.6 µM,11.8 µM,8.66 µM,6.4 µM,7.27 µM,9.23 µM,–,–,–,–,–,–,–,–,–,–
Cc1cc(C)c(S(=O)(=O)N(CCCN)OCCCON(CCCN)S(=O)(=O)c2c(C)cc(C)cc2C)c(C)c1,4.21 µM,3.94 µM,3.22 µM,16.8 µM,3.16 µM,10.7 µM,29.3 µM,19.4 µM,5.22 µM,2.61 µM,–,–,–,–,–,–,–,–,–,–
CCC(CO)Nc1nc(NCc2ccccc2)c2ncn(C(C)C)c2n1 (stereo not given),> 68.1 µM,34.4 µM,52.5 µM,> 86.8 µM,27.3 µM,77.3 µM,> 82.5 µM,49.5 µM,> 58.1 µM,59.3 µM,–,–,–,–,–,–,–,–,–,–
O=C(O)c1cccc2cccc(-c3cccc4cccc(C(=O)O)c34)c12,> 100 µM,> 100 µM,> 100 µM,> 100 µM,> 100 µM,> 100 µM,> 100 µM,> 100 µM,> 100 µM,> 100 µM,–,–,–,–,–,–,–,–,–,–
Cn1c(=O)c(-c2ccccc2)c(O)c2ccccc21,> 100 µM,> 100 µM,> 100 µM,> 100 µM,> 100 µM,> 100 µM,> 100 µM,> 100 µM,> 100 µM,> 100 µM,–,–,–,–,–,–,–,–,–,–
CC(C)C(CC(=O)OCC(CO)OC(=O)CC(C(C)C)C(C)C)C(C)C (stereo not given),28.1 µM,30.3 µM,32.1 µM,31.7 µM,21.5 µM,29.8 µM,25.4 µM,27 µM,33.4 µM,28.4 µM,–,–,–,–,–,–,–,–,–,–
